Measured values taken from PubChem BioAssay AID1963446 (Molecular Pharmacology Branch, DTP, NCI, 2024).

System: 993429-296-R-J1-PDC complex spheroid growth, percent test/control
Assay: Anticancer human tumor 993429-296-R-J1-PDC patient-derived uterine sarcoma cell line growth inhibition [Asc]
Details: for IC50: curve of first compound; for viability, T/C: stronger effect = lower value
Protocol: Multicellular complex tumor spheroid response to apoptosis pathway targeting inhibitors Alrizomadlin, Pelcitoclax, and Dasminapant in combination with a variety of drugs and investigational agents in selected tumor cell lines
The MDM2 inhibitor alrizomadlin, the Bcl-2/Bcl-xL inhibitor pelcitoclax, and the IAPs inhibitor dasminapant were evaluated both individually and in combination with standard of care and investigational anticancer small molecules within a complex spheroid model of solid tumors. . Complex spheroids include a stromal component modeled by human endothelial cells (HUVEC) and fibroblasts modeled by human mesenchymal stem cells (MSCs). The concentration ranges selected for each drug and investigational agent were based upon clinically achievable concentrations if the clinical Cmax of the agent was known.
Compounds. The drugs and investigational agents: alrizomadlin (APG-115; NSC831270), pelcitoclax (APG-1252; NSC835773), dasminapant (APG-1387;NSC834197), TAK-243 (NSC785004), copanlisib (NSC809693), olaparib (NSC753686), talazoparib (NSC767125), cobimetinib (NSC 768068), eltanexor (KPT-8602, NSC 794443), abemaciclib (NSC 768073), sotorasib (NSC818433), adagrasib (NSC 831453), MRTX-1133 (NSC 836407), Iadademestat (ORY1001, NSC 806812), and RMC-4630 (NSC839698), were obtained from the NCI Developmental Therapeutics Program Chemical Repository. The FDA-approved anticancer drug set is available from the Developmental Therapeutics Program at https://dtp.cancer.gov/organization/dscb/obtaining/available plates.htm. […] The stock solutions were prepared in dimethyl sulfoxide (DMSO, Sigma-Aldrich, St. Louis, MO, cat. D2650) at 800-fold the tested concentration and stored at -70 degrees C prior to their use. All drugs and investigational agents were tested over a range starting from a high concentration at or near the clinical Cmax and decreasing in half-log increments. If the clinical Cmax for an agent had not been determined, the highest concentration tested was 10 microM.
The patient-derived cancer (PDC) cell lines include five colon adenocarcinomas: 186277-243-T-J2-PDC, 616215-338-R-J1-PDC, 439559-082-T-J2-PDC, 463943-066-T-J2-PDC, and 519858-162-T-J1-PDC; three pancreatic carcinomas: 323965-272-R-J2-PDC, 521955-158-R6-J3-PDC, and 521955-158-R2-J5-PDC; two uterine sarcomas: 327498-152-R-J2-PDC and 993429-296-R-J1-PDC; two rhabdomyosarcomas: 755483-174-R-J1-PDC and 772245-204-R-J1-PDC; two soft tissue sarcomas: 126254-015-R-J1-PDC and 494315-158-R-J1-PDC; two malignant fibrous histiocytomas: 317291-083-R-J1-PDC and 596521-263-R-J1-PDC; two breast carcinomas: 171881-019-R-J1-PDC and 885512-296-R-J2-PDC; and one ovarian carcinoma: 6556581-035-R-J-PDC were obtained from the NCI PDMR, (https://pdmr.cancer.gov). The established cell lines HSSY-2 synovial sarcoma (RRID:CVCL 8719), SYO-1 synovial sarcoma (RRID:CVCL_7146), MPNST malignant peripheral neural sheath tumor were obtained from the Sloan Kettering Institute. The following established cell lines were purchased from the American Type Culture Collection (ATCC, Manassas, VA), Sor the received from the NCI repository:, PANC-1 pancreatic carcinoma (CRL-1469, RRID:CVCL_0480), OVCAR-5 ovarian carcinoma (RRID:CVCL_1628), OVCAR-8 ovarian carcinoma (RRID:CVCL_1629), , MCF-7 breast carcinoma (CRL-12584, RRID:CVCL_0031), MDA-MB-231 breast carcinoma (CRL-12532, RRID:CVCL_0062), NCI-H1876 small cell lung carcinoma (CRL-5902, RRID:CVCL_1503), NCI-H510A small cell lung carcinoma (HTB-184, RRID:CVCL_1565), NCI-H1417 (CRL-5869, RRID:CVCL_1469), and NCI-H196 small cell lung carcinoma (CRL-5823, RRID:CVCL_1509). Dr. Peter Houghton (Greehey Children's Cancer Research Institute, University of Texas Health Science Center, San Antonio, TX) provided Rh-18 rhabdomyosarcoma (RRID:CVCL_1659). Pooled donor human umbilical vein endothelial cells (HUVEC, Lonza, cat. CC-2519) and human mesenchymal stem cells (hMSC, Lonza, cat. PT-2501) were purchased from Lonza (Walkersville, MD).
Cell Culture. […]
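Further: spheroids exposed to compounds for seven days.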

IC50 (second compound 0.01 µM): 4.14 nM
IC50 (second compound 0.0316 µM): 7.99 nM
IC50 (second compound 0.1 µM): 3.94 nM
IC50 (second compound 0.316 µM): 5.81 nM
IC50 (second compound 1 µM): < 0.316 nM
Structure (SMILES): Cn1ncnc1[C@H]1c2n[nH]c(=O)c3cc(F)cc(c23)N[C@@H]1c1ccc(F)cc1 + CNC(C)C(=O)NC1CN(S(=O)(=O)c2cccc(S(=O)(=O)N3CCC4CCC(C(=O)NC(c5ccccc5)c5ccccc5)N4C(=O)C(NC(=O)C(C)NC)C3)c2)CCC2CCC(C(=O)NC(c3ccccc3)c3ccccc3)N2C1=O
viability, T/C (second compound 0.01 µM, first compound 0.000316 µM): 75.9%
viability, T/C (second compound 0.01 µM, first compound 0.001 µM): 54.9%
viability, T/C (second compound 0.01 µM, first compound 0.00316 µM): 52.7%
viability, T/C (second compound 0.01 µM, first compound 0.01 µM): 47%
viability, T/C (second compound 0.01 µM, first compound 0.0316 µM): 32.6%
viability, T/C (second compound 0.01 µM, first compound 0.1 µM): 21.3%
viability, T/C (second compound 0.0316 µM, first compound 0.000316 µM): 60.4%
viability, T/C (second compound 0.0316 µM, first compound 0.001 µM): 69.1%
viability, T/C (second compound 0.0316 µM, first compound 0.00316 µM): 54.1%
viability, T/C (second compound 0.0316 µM, first compound 0.01 µM): 48.9%
viability, T/C (second compound 0.0316 µM, first compound 0.0316 µM): 35.9%
viability, T/C (second compound 0.0316 µM, first compound 0.1 µM): 26.5%
viability, T/C (second compound 0.1 µM, first compound 0.000316 µM): 52%
viability, T/C (second compound 0.1 µM, first compound 0.001 µM): 52.7%
viability, T/C (second compound 0.1 µM, first compound 0.00316 µM): 51.2%
viability, T/C (second compound 0.1 µM, first compound 0.01 µM): 45.3%
viability, T/C (second compound 0.1 µM, first compound 0.0316 µM): 32.5%
viability, T/C (second compound 0.1 µM, first compound 0.1 µM): 23.2%
viability, T/C (second compound 0.316 µM, first compound 0.000316 µM): 56.5%
viability, T/C (second compound 0.316 µM, first compound 0.001 µM): 60.7%
viability, T/C (second compound 0.316 µM, first compound 0.00316 µM): 54.8%
viability, T/C (second compound 0.316 µM, first compound 0.01 µM): 44.4%
viability, T/C (second compound 0.316 µM, first compound 0.0316 µM): 17.5%
viability, T/C (second compound 0.316 µM, first compound 0.1 µM): 13.7%
viability, T/C (second compound 1 µM, first compound 0.000316 µM): 50.6%
viability, T/C (second compound 1 µM, first compound 0.001 µM): 45.7%
viability, T/C (second compound 1 µM, first compound 0.00316 µM): 46.9%
viability, T/C (second compound 1 µM, first compound 0.01 µM): 39.4%
viability, T/C (second compound 1 µM, first compound 0.0316 µM): 21.6%
viability, T/C (second compound 1 µM, first compound 0.1 µM): 10.9%
